Measurements from article PMC4839570, “Novel Anthra[1,2-c][1,2,5]Thiadiazole-6,11-Diones as Promising Anticancer Lead Compounds: Biological Evaluation, Characterization & Molecular Targets Determination” (PLoS ONE, 2016).
Where two headings read alike, the source gives them in different places.

What was measured:
MOLT-4 = assay: NCI-60 cytotoxicity screen; type: cell-based
SR = assay: NCI-60 cytotoxicity screen; type: cell-based
HOP-62 = assay: NCI-60 cytotoxicity screen; type: cell-based
NCI-H23 [1] = assay: NCI-60 cytotoxicity screen; type: cell-based
NCI-H322M = assay: NCI-60 cytotoxicity screen; type: cell-based
HCC-2998 = assay: NCI-60 cytotoxicity screen; type: cell-based
HCT-15 [2] = assay: NCI-60 cytotoxicity screen; type: cell-based
HT29 = assay: NCI-60 cytotoxicity screen; type: cell-based
SF-295 = assay: NCI-60 cytotoxicity screen; type: cell-based
U251 = assay: NCI-60 cytotoxicity screen; type: cell-based
LOX IMVI = assay: NCI-60 cytotoxicity screen; type: cell-based
OVCAR-5 = assay: NCI-60 cytotoxicity screen; type: cell-based
A498 = assay: NCI-60 cytotoxicity screen; type: cell-based
MCF7 = assay: NCI-60 cytotoxicity screen; type: cell-based
HBC-4 = assay: JFCR-39 cytotoxicity screen; type: cell-based
HBC-5 = assay: JFCR-39 cytotoxicity screen; type: cell-based
MDA-MB-231 = assay: JFCR-39 cytotoxicity screen; type: cell-based
HCT-15 [3] = assay: JFCR-39 cytotoxicity screen; type: cell-based
NCI-H23 [4] = assay: JFCR-39 cytotoxicity screen; type: cell-based
NCI-H226 = assay: JFCR-39 cytotoxicity screen; type: cell-based
A549 = assay: JFCR-39 cytotoxicity screen; type: cell-based
DMS114 = assay: JFCR-39 cytotoxicity screen; type: cell-based
OVCAR-4 = assay: JFCR-39 cytotoxicity screen; type: cell-based
RXF-631L = assay: JFCR-39 cytotoxicity screen; type: cell-based
ACHN = assay: JFCR-39 cytotoxicity screen; type: cell-based
MKN7 = assay: JFCR-39 cytotoxicity screen; type: cell-based
DU-145 = assay: JFCR-39 cytotoxicity screen; type: cell-based
[5] = test system: NF-κB p65 subunit translocation in OVCAR-3 cells; assay: NF-κB inhibition by immunocytochemical fluorescent staining; type: cell-based, human; conditions: 5 μM
Method: Inhibition of NF-κB was detected according to Ataie-Kachoie et al.. Briefly, each group of tested cells were seeded on coverslips treated with HCl and ethanol, and autoclaved prior to use. Immunostaining of the p65 subunit of NF-κB was done by permeabilizing the cells with Triton […], then by treating the cells with anti-NF-κB p65 rabbit monoclonal primary antibody [E379] Abcam # ab32536, followed by Alexa Fluor® 488 Donkey anti-rabbit IgG secondary antibody Biolegend # 406416. Nuclei of cells were stained with 4',6-diamidino-2-phenylindole (DAPI). Images were acquired using fluorescence microscope. Tested cells were divided into five groups which are no treatment control, no primary antibody control, PDTC (50 μM) treated control, NSC745885 (5 μM) and NSC757963 (5 μM) treated controls.

[6] = Homo sapiens, Fig 7, read-out: mean log10 of the GI50 values (converted)
[7] = Homo sapiens, five-dose, read-out: GI50
[8] = Homo sapiens, five-dose, read-out: LC50 (the source's name)
[9] = Homo sapiens, read-out: LC50 (the source's name)

`O=C1c2ccccc2C(=O)c2c1cc(Cl)c1nsnc21` [NSC757963] was tested, and the GI50 (MOLT-4; [6]) was 437 nM, the GI50 (MOLT-4; [7]) was 460 nM and the CC50 (MOLT-4; [8]) was > 100 µM. For the same molecule, the TGI (MOLT-4; five-dose) was 26.7 µM, the GI50 (SR; [6]) was 1820 nM and the GI50 (SR; [7]) was 2640 nM. The CC50 (SR; [8]) was > 100 µM, the TGI (SR; five-dose) was >100 µM and the GI50 (HOP-62; [6]) was 3.89 µM. It also gave a GI50 (HOP-62; [7]) of 4.95 µM, a CC50 (HOP-62; [8]) of 43.3 µM and a TGI (HOP-62; five-dose) of 17.3 µM. For the same molecule, the GI50 (NCI-H23 [1]; [6]) was 3.63 µM, the GI50 (NCI-H23 [1]; [7]) was 3.62 µM and the CC50 (NCI-H23 [1]; [8]) was 74.6 µM. It also gave a TGI (NCI-H23 [1]; five-dose) of 17.2 µM, a GI50 (NCI-H322M; [6]) of 30.9 µM and a GI50 (NCI-H322M; [7]) of 18.6 µM. It also gave a CC50 (NCI-H322M; [8]) of 71 µM, a TGI (NCI-H322M; five-dose) of 36.3 µM and a GI50 (HCC-2998; [6]) of 17 µM. It also gave an LC50 (concentration causing 50% net cell kill) (HCC-2998; Homo sapiens, five-dose) of 56.6 µM, a GI50 (HCC-2998; [7]) of 14.1 µM and a TGI (HCC-2998; five-dose) of 28.2 µM. It also gave a GI50 (HCT-15 [2]; [6]) of 6.61 µM, a GI50 (HCT-15 [2]; [7]) of 10.2 µM and a CC50 (HCT-15 [2]; [8]) of 55.9 µM. It also gave a TGI (HCT-15 [2]; five-dose) of 23.8 µM, a GI50 (HT29; Homo sapiens, HT-29, Fig 7, read-out: mean log10 of the GI50 values (converted)) of 19.5 µM and a GI50 (HT29; Homo sapiens, HT-29, five-dose, read-out: GI50) of 19.2 µM. For the same molecule, the CC50 (HT29; Homo sapiens, HT-29, five-dose, read-out: LC50 (the source's name)) was 98.2 µM, the TGI (HT29; five-dose) was 43.4 µM and the GI50 (SF-295; [6]) was 17.4 µM. It also gave a GI50 (SF-295; [7]) of 16.6 µM, a CC50 (SF-295; [8]) of 62.9 µM and a TGI (SF-295; five-dose) of 32.3 µM. For the same molecule, the GI50 (U251; Homo sapiens, U-251, Fig 7, read-out: mean log10 of the GI50 values (converted)) was 2340 nM, the GI50 (U251; Homo sapiens, U-251, five-dose, read-out: GI50) was 3290 nM and the CC50 (U251; Homo sapiens, U-251, five-dose, read-out: LC50 (the source's name)) was 32.7 µM. It also gave a TGI (U251; five-dose) of 10.4 µM, a GI50 (LOX IMVI; Homo sapiens, LOXIMVI, Fig 7, read-out: mean log10 of the GI50 values (converted)) of 1740 nM and a GI50 (LOX IMVI; [7]) of 1910 nM. The CC50 (LOX IMVI; [8]) was 19.7 µM, the TGI (LOX IMVI; five-dose) was 5.21 µM and the GI50 (OVCAR-5; [6]) was 17.4 µM. It also gave a GI50 (OVCAR-5; [7]) of 17.6 µM, a CC50 (OVCAR-5; [8]) of 56.8 µM and a TGI (OVCAR-5; five-dose) of 31.6 µM. The GI50 (A498; [6]) was 85.1 µM, the GI50 (A498; [7]) was 72.8 µM and the CC50 (A498; [8]) was > 100 µM. For the same molecule, the TGI (A498; five-dose) was >100 µM, the GI50 (MCF7; [6]) was 1700 nM and the GI50 (MCF7; [7]) was 1780 nM. It also gave a CC50 (MCF7; [8]) of 10.4 µM, a TGI (MCF7; five-dose) of 4.24 µM and a TGI (HBC-4) of 3.1 µM. It also gave a GI50 (HBC-4; Homo sapiens, HBC4) of 1700 nM, a CC50 (HBC-4; Homo sapiens, HBC4, read-out: LC50 (the source's name)) of 5.6 µM and a TGI (HBC-5) of 4.1 µM. The GI50 (HBC-5; Homo sapiens, HBC5) was 2100 nM, the CC50 (HBC-5; Homo sapiens, HBC5, read-out: LC50 (the source's name)) was 8.3 µM and the TGI (MDA-MB-231) was 2.9 µM. It also gave a GI50 (MDA-MB-231; Homo sapiens) of 1300 nM, a CC50 (MDA-MB-231; [9]) of 6.4 µM and a TGI (HCT-15 [3]) of 3.9 µM. It also gave a GI50 (HCT-15 [3]; Homo sapiens) of 1900 nM, a CC50 (HCT-15 [3]; [9]) of 7.9 µM and a TGI (NCI-H23 [4]) of 4.1 µM. It also gave a GI50 (NCI-H23 [4]; Homo sapiens) of 1900 nM, a CC50 (NCI-H23 [4]; [9]) of 8.7 µM and a TGI (NCI-H226) of 17.0 µM. For the same molecule, the GI50 (NCI-H226; Homo sapiens) was 4.2 µM, the CC50 (NCI-H226; [9]) was 51 µM and the TGI (A549) was 43.0 µM. It also gave a GI50 (A549; Homo sapiens) of 20 µM, a CC50 (A549; [9]) of 95 µM and a TGI (DMS114) of 2.5 µM. It also gave a GI50 (DMS114; Homo sapiens, DMS-114) of 1000 nM, a CC50 (DMS114; Homo sapiens, DMS-114, read-out: LC50 (the source's name)) of 6.1 µM and a TGI (OVCAR-4) of 3.0 µM. For the same molecule, the GI50 (OVCAR-4; Homo sapiens) was 1600 nM, the CC50 (OVCAR-4; [9]) was 5.6 µM and the TGI (RXF-631L) was 3.1 µM. The GI50 (RXF-631L; Homo sapiens) was 1700 nM, the CC50 (RXF-631L; [9]) was 5.9 µM and the TGI (ACHN) was 3.4 µM. It also gave a GI50 (ACHN; Homo sapiens) of 1800 nM, a CC50 (ACHN; [9]) of 6.5 µM and a TGI (MKN7) of 3.6 µM. The GI50 (MKN7; Homo sapiens, MKN-7) was 1700 nM, the CC50 (MKN7; Homo sapiens, MKN-7, read-out: LC50 (the source's name)) was 7.4 µM and the TGI (DU-145) was 6.3 µM. For the same molecule, the GI50 (DU-145; Homo sapiens) was 2500 nM, the CC50 (DU-145; [9]) was 23 µM and the “nuclear translocation of the NF-κB p65 subunit” value [5] was “significantly capable of preventing the nuclear translocation of the NF-κB p65 subunit”.
